What was measured:
Assay type in all cases: biochemical
[1] = tested on: fructosyl peptide oxidase; assay: Substrate specificity, pH profile and stability of fructosyl peptide oxidase-immobilized column (Example 1); conditions: for Relative activity (%) pH 6.0: buffer pH 6.0; for Relative activity (%) pH 6.0 / Relative activity (%) pH 7.0 / Relative activity (%) pH 8.0: normalized to 100 for the response to fructosyl valine at each pH, 30° C.; for Relative activity (%) pH 7.0: buffer pH 7.0; for Relative activity (%) pH 8.0: buffer pH 8.0
Description: Firebrick powder (150 mg, 30 to 60 meshes) was thoroughly dried, immersed in a 10% solution of γ-aminopropyltriethoxysilane in anhydrous toluene for one hour, then thoroughly washed with anhydrous toluene and dried. The aminosilane-modified support was immersed in a 5% aqueous glutaraldehyde solution for one hour, and then thoroughly washed with distilled water, followed by substitution with 100 mM sodium phosphate buffer (pH 7.0). The buffer was removed as far as possible. A solution ([…]) of fructosyl peptide oxidase (140 units/mL, from Kikkoman Co.) in 100 mM sodium phosphate buffer (pH 7.0) was contacted with the formylated firebrick powder, and then incubated at 0 to 4° C. for one day for the enzyme immobilization. The support immobilized enzyme was packed into a column (internal diameter: 3.5 mm, length: 30 mm) to give the fructosyl peptide oxidase-immobilized column.
The buffer was pumped out from a buffer tank (1) using a pump (2), and 5 μL of a sample was injected using a valve (4). A protease-immobilized column (14), a flow type calorimeter (16), a second immobilized enzyme column (19) and a second electrode for hydrogen peroxide (20) were not placed, and a fructosyl peptide oxidase-immobilized column was placed as a first immobilized enzyme column (17), followed by an electrode for hydrogen peroxide (18) downstream thereof. The injected sample transferred with the flowing buffer, passed through a mixing coil (15) inside an incubator (13), and thus the sample temperature was adjusted and the sample was mixed with the buffer. The sample passed through the fructosyl peptide oxidase-immobilized column (17) and the electrode for hydrogen peroxide (18) to produce hydrogen peroxide from fructosyl valylhistidine in the sample, and then the change of the current was detected.
A composition of the buffer used in this assay apparatus contained 100 mM phosphoric acid, 50 mM potassium chloride and 1 mM sodium azide, and its pH was 7.0.
(§1) The flow rate of the buffer was 1.0 mL/minute, and the temperature in the incubator was 30° C.
Using the assay apparatus described in (3), a 5 μL portion of fructosyl glycine, fructosyl valine or fructosyl valylhistidine was injected, and the characteristics of the fructosyl peptide oxidase-immobilized column was examined.
When pH of the buffer was 6.0, 7.0 or 8.0, the assay results of the activity for the oxidation of fructosyl glycine (FG), fructosyl valine (FV) or fructosyl valylhistidine (FVH) were shown in FIG. 3. For fructosyl glycine the activity was high at pH 8.0, but the activity at pH 6.0 was decreased to about 50% of that at pH 8.0. For fructosyl valine and fructosyl valylhistidine, the activity was high at pH 6.0 and 7.0.
Response values in Table 1 were normalized to 100 for the response to fructosyl valine at each pH.

[2] = tested on: fructosyl amino acid oxidase; assay: Substrate specificity of fructosyl amino acid oxidase-immobilized column (Example 3); conditions: buffers pH 8.0; for Relative response value: normalized to 100 for the response to fructosyl glycine, 37° C., dialysis module
From the text: The buffer was removed as far as possible. […] The support immobilized enzyme was packed into the column (internal diameter: 3.5 mm, length: 30 mm) to give the fructosyl amino acid oxidase-immobilized column. In the assay apparatus shown in FIG. 2, the flow type calorimeter (16), the protease-immobilized column (14) and the first immobilized enzyme column (17) were not disposed, and the electrode for glucose was placed in the electrode for hydrogen peroxide (18), the fructosyl amino acid oxidase-immobilized column in the second immobilized enzyme column (19), and the electrode for hydrogen peroxide in the electrode for hydrogen peroxide (20). The buffer B was pumped out from the buffer tank (24) using the pump (25), and a 100 μL portion of the sample was injected using the valve (4). […] Since the buffer A was pumped out from the buffer tank (1) by the pump (2), the components with low molecular weight in the sample dialyzed in the dialysis module (27) passed through the electrode for glucose (18), the fructosyl amino acid oxidase-immobilized column (19) and the electrode for hydrogen peroxide (20), and hydrogen peroxide from glucose and fructosyl amino acid in the sample was detected. […] The temperature in the incubator was 37° C. The substrate specificity of fructosyl amino acid oxidase-immobilized column for various fructosyl amino acids, fructosyl peptides, amino acids and sugars was examined using the assay apparatus mentioned in (4) when pH of the buffers was 8.0.

[3] = tested on: fructosyl peptide oxidase; assay: Substrate specificity of fructosyl peptide oxidase-immobilized column (Example 4); conditions: buffer A pH 7.0; for Relative response value: normalized to 100 for the response to fructosyl valine, 30° C.
Description: In the same way as described in Example 1 (1), 150 mg of firebrick powder (30 to 60 meshes) was formylated. The solution (200 μL) of fructosyl peptide oxidase (140 units/mL, from Kikkoman Co.) in 100 mM sodium phosphate buffer (pH 7.0) was contacted with the formylated firebrick powder, and then incubated at 0 to 4° C. for one day for the enzyme immobilization.
In the assay apparatus shown in FIG. 1, the protease-immobilized column (14), the flow type calorimeter (16) and the first immobilized enzyme column (17) were not disposed, and the electrode for glucose was placed in the electrode for hydrogen peroxide (18), the fructosyl peptide oxidase-immobilized column in the second immobilized enzyme column (19), and the electrode for hydrogen peroxide in the electrode for hydrogen peroxide (20). The buffer A was pumped out from the buffer tank (1) by the pump (2), and a 5 μL portion of the sample was injected using the valve (4). The injected sample transferred with the flowing buffer A, passed through the mixing coil (15) in the incubator (13), and thus the sample temperature was adjusted and the sample was mixed with the buffer. And then the sample passed through the downstream electrode for glucose (18), fructosyl peptide oxidase-immobilized column (19) and an electrode for hydrogen peroxide (20), hydrogen peroxide was produced from fructosyl valylhistidine in the sample, and the change of the current was detected.
The composition of the buffer A for the assay apparatus contained 100 mM phosphoric acid, 50 mM potassium chloride and 1 mM sodium azide, and its pH was 7.0.
as §1
On fructosyl peptide oxidase-immobilized column, the substrate specificity for various fructosyl amino acids, fructosyl peptides, amino acids and sugars was examined using the assay apparatus mentioned in (4) when pH of the buffer A was 7.0. In the Table 4, the relative values were normalized to 100 for the response to fructosyl valine.

[4] = tested on: fructosyl amino acid oxidase; assay: Characteristics of fructosyl amino acid oxidase-immobilized column (Example 5); conditions: buffer pH 8.0, 37° C.
Description: FIG. 1 was the flow type assay apparatus with one flow path. The buffer A was pumped out from the buffer tank (1) using the pump (2), and a 5 μL portion of the sample was injected using the valve (4). The fructosyl amino acid oxidase-immobilized column was placed in the first immobilized enzyme column (17) and the electrode for hydrogen peroxide was placed downstream. The second immobilized enzyme column (19), the second electrode for hydrogen peroxide (20), the protease-immobilized column (14) and the flow type calorimeter (16) were not disposed. The injected sample transferred with the flowing buffer, passed through the mixing coil (15) in the incubator (13), and thus the sample temperature was adjusted and the sample was mixed with the buffer. The sample passed through the fructosyl amino acid oxidase-immobilized column (17) and the electrode for hydrogen peroxide (18), hydrogen peroxide was produced from fructosyl valine in the sample, and the change of the current was detected.
The composition of the buffer for this assay apparatus contained 100 mM phosphoric acid, 50 mM potassium chloride and 1 mM sodium azide, and its pH was 8.0.
The flow rate of the buffer was 1.0 mL/minute, and the temperature in the incubator was 37° C.
Using the assay apparatus 1 mentioned in (3), a 5 μL portion of fructosyl glycine was injected, and the characteristics of the fructosyl amino acid oxidase-immobilized column was examined.
When pH in the buffer was 7.0, 7.5, 8.0, 8.5 or 9.0, the activity in the oxidation of fructosyl glycine was measured.

| Relative activity (%) pH 6.0 [1] [%] | Relative activity (%) pH 7.0 [1] [%] | Relative activity (%) pH 8.0 [1] [%] | response of fructosyl amino acid oxidase-immobilized column [2] | Relative response value [2] | Relative response value [3] | Relative activity (%) ([4]; sample concentration 10 mM) | SMILES | response of fructosyl peptide oxidase-immobilized column (in words) ([1]; at any pH (6.0, 7.0, 8.0)) | response of fructosyl peptide oxidase-immobilized column (in words) [3] | Relative activity (%) ([4]; sample concentration 0.1 mM) |
| --- | --- | --- | --- | --- | --- | --- | --- | --- | --- | --- |
| 0 | 0 | 0 | extremely small responses | 0.2 | 0.0 | 6.0 | NC(=O)CC[C@H](N)C(=O)O [Gln] | – | – | – |
| 0 | 0 | 0 | – | 0.0 | 0.0 | 0.0 | N[C@@H](CC(=O)O)C(=O)O [Asp] | – | – | – |
| 0 | 0 | 0 | – | 0.0 | 0.0 | 2.0 | C[C@@H](O)[C@H](N)C(=O)O [Thr] | – | – | – |
| 0 | 0 | 0 | – | 0.0 | 0.0 | 0.0 | OCC(O)CO [Glycerol] | – | – | – |

| SMILES | Relative activity (%) pH 6.0 [1] [%] | Relative activity (%) pH 7.0 [1] [%] | Relative activity (%) pH 8.0 [1] [%] | response of fructosyl amino acid oxidase-immobilized column [2] | Relative response value [2] | Relative response value [3] | Relative activity (%) ([4]; sample concentration 10 mM) | response of fructosyl peptide oxidase-immobilized column (in words) ([1]; at any pH (6.0, 7.0, 8.0)) | response of fructosyl peptide oxidase-immobilized column (in words) [3] | Relative activity (%) ([4]; sample concentration 0.1 mM) |
| --- | --- | --- | --- | --- | --- | --- | --- | --- | --- | --- |
| N=C(N)NCCC[C@H](N)C(=O)O [Arg] | 0 | 0 | 0 | – | 0.0 | 0.0 | 1.0 | – | – | – |
| O=C(O)[C@H](CCCCNCC(=O)[C@@H](O)[C@H](O)[C@H](O)CO)NCC(=O)[C@@H](O)[C@H](O)[C@H](O)CO [α, ε-Fructosyl lysine] | 9 | 10 | 11 | – | 1.1 | 9.9 | – | scarcely responded | scarcely responded | 5.0 |
